Data as given in EP4729061A1, “USE OF AKT INHIBITOR IN PREPARATION OF DRUG FOR PREVENTING OR TREATING BREAST CANCER” (Nanjing Chia Tai Tianqing Pharmaceutical Co., Ltd., priority 2023, dated 2024).
Read-outs that look alike come from different tables or passages of the source.

Assays:
[1] = system: CAMA-1 Cells; experiment: Cell proliferation inhibition, CTG (CelltiterGlo) method, alone or combined with fulvestrant; format: cell-based; details: compound alone; for IC50: Homo sapiens, CAMA-1, 168 h, 7 days
Procedure: a). BT-474 cells were cultured in Hybri-Care medium supplemented with 1% antibiotics and 10% FBS, and incubated in the condition of 37°C with 5% CO2; b). MCF-7 cells were cultured in EMEM medium supplemented with 1% antibiotics, 0.01 mg/mL insulin, and 10% FBS, and incubated in the condition of 37°C with 5% CO2; c). ZR-75-1 cells were cultured in RPMI-1640 medium supplemented with 1% antibiotics and 10% FBS, and incubated in the condition of 37°C with 5% CO2; d). T47D cells were cultured in RPMI-1640 medium supplemented with 1% antibiotics, 0.2 U/mL insulin, and 10% FBS, and incubated in the condition of 37°C with 5% CO2; e) CAMA-1 cells were cultured in EMEM medium supplemented with 1% antibiotics and 10% FBS, and incubated in the condition of 37°C with 5% CO2.
a). Cells were routinely cultured until reaching 80%-90% confluence and when the required cell number was reached, they were harvested; b). Resuspended in the corresponding medium, counted, and prepared into a cell suspension with appropriate density; c). The cell suspension was added to a 384-well plate at 40 µL per well. Table 1. Plating densities of different cell lines
d). The cells were cultured overnight in an incubator at 37°C with 5% CO2 .
a). The compound of Formula (A) was serially diluted 3-fold for 10 concentrations starting from a stock solution of 60 mM (using the monofumarate dihydrate of the compound of Formula (A), with the concentration calculated based on the free base of the compound of Formula (A); the compound of Formula (A) or salt thereof was prepared with reference to the preparation method disclosed in WO2022017448A1); b). […] Cells supplemented with DMSO served as control wells for high reading values; j). Cell-free medium served as control wells for low reading values. […]
a). […] The chemiluminescent signal values were read using an Envision instrument.
Using the inhibition rate data measured by monotherapy or single-concentration combination therapy in Section 2.4, IC50 was calculated with GraphPad Prism 8 software. […]

[2] = Clinical trial of the compound of Formula (A) tablets as monotherapy: pharmacokinetics; format: in vivo, patients with advanced malignant solid tumors; details: 400mg Monotherapy; for half-life / AUC(0-t) / Cmax / Vd/F: 400 mg
Text: All contents of the trial protocol with registration number CTR20211999 on the China Drug Clinical Trial Registration and Information Disclosure Platform and results thereof are incorporated herein by reference.
Study Objectives: To evaluate the safety and tolerability of the compound of Formula (A) in patients with advanced malignant solid tumors (including breast cancer and ovarian cancer) who have failed standard treatment, and to explore the maximum tolerated dose (MTD) of the compound of Formula (A), and determine the recommended phase II dose (RP2D). To evaluate the pharmacokinetic (PK) characteristics of the compound of Formula (A) following a single dose and continuous administration for 21 days in patients with advanced solid tumors. To assess the preliminary efficacy of the compound of Formula (A) in the treatment of advanced solid tumors.
Trial Design: The study was an open-label, single-arm, non-randomized clinical trial focusing on safety, efficacy, and pharmacokinetics. The first part was the dose-finding phase, and the second part was the dose-expansion phase.
A starting dose of 20 mg of the compound of Formula (A) was selected, with successive dose-finding groups set as 20 mg, 50 mg, 100 mg, 200 mg, 300 mg, and 400 mg. The administration regimen included once-daily single-dose administration (with a 7-day washout period) and multiple-dose administration (continuous administration for 21 days, 28 days as one cycle, treatment continued until intolerable toxicity, disease progression, or subject withdrawal).
The dose-expansion phase was initiated after the completion of the dose-finding phase. Based on the results of dose escalation, the dosage for the dose-expansion group was determined, with oral administration once daily (continuous administration for 21 days, 28 days as one cycle, and treatment will be continued until intolerable toxicity, disease progression, or subject withdrawal).
1) Safety and Tolerability: Maximum Tolerated Dose (MTD) and Dose-Limiting Toxicity (DLT); 2) PK Indicators: See Tables 13 and 14 below; 3) Efficacy Indicators: Objective Response Rate (ORR), Disease Control Rate (DCR), Duration of Response (DOR), and Progression-Free Survival (PFS). Table 13. PK Indicators of the compound of Formula (A) monotherapy in the dose-finding phase

[3] = Multiple Doses, n=8, dose-expansion phase
[4] = human, in vivo, oral, Single Dose, n=10, dose-finding phase

| SMILES | IC50 [1] [µM] | Maximum Inhibition Rate on CAMA-1 Cells ([1]; maximum value fitted by GraphPad Prism 8) [%] | CLss/F [2, 3] [L/h] | Cav,ss [2, 3] [ng/mL] | Cmin,ss [2, 3] [ng/mL] | Tmax,ss [2, 3] | CL/F ([2]; Single Dose, n=10, dose-finding phase) [L/h] | half-life ([2]; human, in vivo, oral, Multiple Doses, n=8, dose-expansion phase) [h] | AUC(0-t) ([2]; human, in vivo, oral, Multiple Doses, n=8, dose-expansion phase, read-out: AUC0-t,ss) [ng·h/mL] | Cmax ([2]; human, in vivo, oral, Multiple Doses, n=8, dose-expansion phase, read-out: Cmax,ss) [ng/mL] | Vd/F ([2]; human, in vivo, oral, Multiple Doses, n=8, dose-expansion phase, read-out: Vss/F) [L] | half-life [2, 4] [h] | AUC(0-t) ([2]; human, in vivo, oral, Single Dose, n=10, dose-finding phase, read-out: AUC0-t) [ng·h/mL] | Cmax ([2]; human, in vivo, oral, Single Dose, n=10, dose-finding phase, read-out: Cmax) [ng/mL] | Vd/F ([2]; human, in vivo, oral, Single Dose, n=10, dose-finding phase, read-out: Vz/F) [L] | AUC ([2]; human, in vivo, oral, Multiple Doses, n=8, dose-expansion phase, read-out: AUC0-τ) [ng·h/mL] | Tmax [2, 4] [h] |
| --- | --- | --- | --- | --- | --- | --- | --- | --- | --- | --- | --- | --- | --- | --- | --- | --- | --- |
| C[C@]12CC[C@@H]3c4ccc(O)cc4C[C@@H](CCCCCCCCC[S+]([O-])CCCC(F)(F)C(F)(F)F)[C@H]3[C@@H]1CC[C@@H]2O (stereo partly drawn) [Fulvestrant, reference compound] | > 0.1 |  |  |  |  |  |  |  |  |  |  |  |  |  |  |  |  |
| CC(C)NC[C@@H](C(=O)N1CCN(c2ncnc3c2[C@H](C)CC(=O)N3)[C@H]2C[C@H]21)c1ccc(Cl)cc1 [The compound of Formula (A), (R)-4-((1S,6R)-5-((S)-2-(4-chlorophenyl)-3-(isopropylamino)propanoyl)-2,5-diazabicyclo[4.1.0]heptan-2-yl)-5-methyl-5,8-dihydropyrido[2,3-d]pyrimidin-7(6H)-one] | 1.13 | 95.43 | 155.88 ± 81.87 | 131.73 ± 64.21 | 33.76 ± 14.66 | 3.00 [0,6.00] h | 186.378 ± 99.471 | 12.9 ± 4.19 | 3530 ± 1770 | 462 ± 245 | 2880 ± 1670 | 7.22 ± 1.91 | 2380 ± 1160 | 392 ± 178 | 1920 ± 1000 | 3160 ± 1540 | 3 |
